In PubChem BioAssay AID732 (Emory University Molecular Libraries Screening Center, 2007):
Where “and” joins values, the source holds several entries; their conditions need not be identical. Equal entries are not always repeated. Calls of active or inactive are those of the source. No rule for the calls is given here.

What follows are molecules tested on in vivo angiogenesis, blood vessel count (assay: reduction of blood vessel formation in vivo – HTS, in vivo study (AID 732;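 also: zebrafish embryos dosed at one day post fertilization; 0% = reference inhibitor and 100% = plate mean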)). Settings: hits give low values;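 tested at 30 µM in the well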.

SMILES	vessel count % control
CC(=O)[C@@]1(O)CC[C@H]2[C@@H]3CCC4=CC(=O)CC[C@]4(C)[C@H]3CC[C@@]21C	98.7% (inactive)
NC(N)=NC(N)=Nc1cccc(Cl)c1	103% (inactive)
Cc1ccccc1C(OCCN(C)C)c1ccccc1 (stereo not given)	108% (inactive)
NC[C@@H]1O[C@H](C23CC4CC(CC(C4)C2)C3)Cc2c1ccc(O)c2O	110% (inactive)
N#C/C(=C\c1ccc(O)c(O)c1)C(=O)c1ccc(O)c(O)c1	124% (inactive)
Clc1ccc2c(c1)C(N1CCNCC1)=Nc1ccccc1O2	98.2% (inactive)
Oc1ccc(/C=C/c2cc(O)cc(O)c2)cc1	100% (inactive)
CN[C@H]1CC[C@@H](c2ccc(Cl)c(Cl)c2)c2ccccc21	98% (inactive)
O=C1CC2(CCCC2)CC(=O)N1CCCCN1CCN(c2ncccn2)CC1	114% (inactive)
NS(=O)(=O)c1cc2c(cc1Cl)NC(C1CC3C=CC1C3)NS2(=O)=O (stereo not given)	107% (inactive)
CSc1ccc2c(c1)N(CCC1CCCCN1C)c1ccccc1S2 (stereo not given)	102% (inactive)
NC(N)=NC(=O)c1nc(Cl)c(N)nc1N	117% (inactive)
CCN(CC)CCCCCCCCOC(=O)c1cc(OC)c(OC)c(OC)c1	91.4% (inactive)
C[C@]12CC[C@@H](O)CC1CC[C@@H]1[C@@H]2CC[C@]2(C)C(=O)CC[C@@H]12 (stereo not given in full)	104% (inactive)
CC(COc1ccccc1)N(CCCl)Cc1ccccc1 (stereo not given)	139% (inactive)
O=c1c2ccccc2nc2n1CCc1c-2[nH]c2ccccc12	64.3% (inactive)
C[N+](C)(C)CC=O	104% (inactive)
Cc1cccc(C)c1OCC(C)N (stereo not given)	99.4% (inactive)
O=C(OCCN1CCOCC1)C1(c2ccccc2)CCCCC1	91.6% (inactive)
N=C(N)SCCN	110% (inactive)
CCCn1c(=O)c2[nH]c(C3CCCC3)nc2n(CCCOC(=O)c2ccc(S(=O)(=O)F)cc2)c1=O	117% (inactive)
COc1ccc(NC(=O)c2ccc(-c3ccc(-c4noc(C)n4)cc3C)cc2)cc1N1CCN(C)CC1	93% (inactive)
CC(=O)[C@H]1CCC2C3CC=C4C[C@@H](OS(=O)(=O)O)CC[C@]4(C)C3CC[C@@]21C (stereo not given in full)	85% (inactive)
Cc1cc2c(cc1Cl)N(C(=O)Nc1ccnc3ccccc13)CC2	108% (inactive)

SMILES	vessel count % control
O=C(O)c1ccccc1Nc1cccc(OCc2ccc3ccccc3n2)c1	85.3% (inactive)
CO/N=C(\C(=O)N[C@@H]1C(=O)N2C(C(=O)O)=C(COC(C)=O)CS[C@H]12)c1csc(N)n1 (stereo in doubt)	104% (inactive)
Cc1cccc(C2CN(C)CCc3c2cc(O)c(O)c3Cl)c1 (stereo not given)	96.5% (inactive)
C[C@H]1O[C@@H](n2cc(F)c(=O)[nH]c2=O)[C@H](O)[C@@H]1O	108% (inactive)
CC[C@H](NC(=O)c1c(C)c(-c2ccccc2)nc2ccccc12)c1ccccc1	126% (inactive)
O=[N+]([O-])c1cccc2c(Br)[nH]nc12	99.9% (inactive)
CCNC(=O)[C@H]1O[C@@H](n2cnc3c(N)nc(NCCc4ccc(CCC(=O)O)cc4)nc32)C(O)[C@H]1O (stereo not given in full)	93.7% (inactive)
NCCC(=O)NCCc1cnc[nH]1	84.2% (inactive)
CCN(CC)C(C)C(=O)N1c2ccccc2Sc2ccccc21 (stereo not given)	94.9% (inactive)
Cn1c(=O)c2c(ncn2C)n(C)c1=O	113% (inactive)
N[C@H](CCCCCP(=O)(O)O)C(=O)O	84.2% (inactive)
CC1COc2c(N3CCN(C)CC3)c(F)cc3c(=O)c(C(=O)O)cn1c23 (stereo not given)	74.9% (inactive)
CCOC(=O)c1ncn2c1[C@@H]1CCCN1C(=O)c1cc(OC)ccc1-2	102% (inactive)
C=C(C)[C@H]1CN[C@H](C(=O)O)[C@H]1CC(=O)O	123% (inactive)
NO	93.7% (inactive)
O=C(Nc1ccccc1)c1cc([N+](=O)[O-])ccc1Cl	90.3% (inactive)
COc1ccccc1N1CCN(CCCNc2cc(=O)n(C)c(=O)n2C)CC1	111% (inactive)
COC(=O)Nc1nc2ccc(C(=O)c3cccs3)cc2[nH]1	150% (inactive)
O=[N+]([O-])c1ccc(-c2nc(-c3ccc(F)cc3)c(-c3ccncc3)[nH]2)cc1	124% (inactive)
Cc1ccc(C(=O)O[C@H](C(=O)O)[C@H](OC(=O)c2ccc(C)cc2)C(=O)O)cc1 (tested in a mixture with another compound)	109% (inactive)
OCc1cc(C(O)CNCCCCCCOCCCCc2ccccc2)ccc1O (stereo not given)	126% (inactive)
NC(Cc1cccc(-c2ccccc2CP(=O)(O)O)c1)C(=O)O (stereo not given)	106% (inactive)
O=C(/C=C/c1ccc(O)c(O)c1)OCCc1ccccc1	0% (inactive)
CN1C[C@H](C(=O)N[C@]2(C)O[C@@]3(O)[C@@H]4CCCN4C(=O)[C@H](Cc4ccccc4)N3C2=O)C[C@@H]2c3cccc4[nH]cc(c34)C[C@H]21	98.7% (inactive)

SMILES	vessel count % control
CC(N)=O	108% (inactive)
CCOC(=O)C1=C(C)NC(C)=C(C(=O)OC)C1c1cccc(Cl)c1Cl (stereo not given)	56% (inactive)
CCCCCCC/C=C\CCCCCCCCC(=O)O	106% (inactive)
O=c1[nH]c2cc([N+](=O)[O-])c([N+](=O)[O-])cc2[nH]c1=O	104% (inactive)
NNCCc1ccccc1	104% (inactive)
NC(=O)CC[C@H](N)C(=O)O	104% (inactive)
CN1[C@@H](CC(=O)c2ccccc2)CCC[C@H]1C[C@H](O)c1ccccc1	107% (inactive)
CCCN1C[C@H](CSC)C[C@@H]2c3cccc4[nH]cc(c34)C[C@H]21	96.8% (inactive)
CCCN1CC[C@@H]2c3cc(O)ccc3CC[C@@H]21	88.5% (inactive) and 103% (inactive)
Clc1ccccc1C(c1ccccc1)(c1ccccc1)n1ccnc1	114% (inactive)
CC(N)=NCc1cccc(CN)c1	104% (inactive)
COc1cccc(-c2cc(=O)c3ccccc3o2)c1N	73.8% (inactive)
C[C@]12CC[C@H](OS(=O)(=O)O)CC1=CC[C@@H]1[C@@H]2CC[C@]2(C)C(=O)CC[C@@H]12	90.1% (inactive)
COc1cc(CNC(=O)CCCCCCC(C)C)ccc1O	128% (inactive)
CC(=O)N[C@H](C(=O)O)C(C)(C)SN=O	94.3% (inactive)
CNCCCC1c2ccccc2C=Cc2ccccc21	96% (inactive)
CC(C)(Oc1ccc(C2CC2(Cl)Cl)cc1)C(=O)O (stereo not given)	96.9% (inactive)
CP(=O)(O)CCCN	76.1% (inactive)
O=C(N[C@@H](Cc1ccccc1)C(=O)CCl)OCc1ccccc1	0% (inactive)
CCN(CC)CC(=O)Nc1c(C)cccc1C	73.7% (inactive)
N#Cc1c(-c2ccccc2)no[n+]1[O-]	120% (inactive)
CC(=O)OC(C)C[N+](C)(C)C (stereo not given)	85.5% (inactive)
